The source of these data is PMC6920875, “Dithiocarbamate as a Valuable Scaffold for the Inhibition of Metallo-β-Lactmases” (Biomolecules, 2019).

One series deals with T1, VIM-2 (Escherichia coli, UniProt Q5U7L7).
T1 construct: made in house; host or cells: E. coli BL21 (DE3), plasmid pET24a-VIM-2
In kind it is biochemical. The following applies: read-out: IC50 against VIM-2; substrate cefazolin 40 µM, 30 mM Tris pH 7.0, 25 °C, 5 min pre-incubation, inhibitor up to 200 μM. Here is the method: (§1) The dithiocarbamates, MβLs and substrates samples were prepared with 30 mM Tris, pH 7.0. […] Enzymes and inhibitors were pre-incubated for 5 min before adding substrate. […] The IC50 values were nonlinearly fitted by plotting the average percentage inhibition against inhibitor concentration. The inhibition modes of DC1 to ImiS, NDM-1 and L1 were assayed by generating Lineweaver–Burk plots, and Ki values were obtained by fitting initial velocity versus substrate concentration at each inhibitor concentration, using SigmaPlot 12.0 (Systat Software Inc., San Jose, CA, USA).
(§2) To evaluate the inhibitory activity of the dithiocarbamates, we over-expressed and purified MβLs NDM-1, VIM-2 and IMP-1 (B1), ImiS (B2), and L1 (B3) from three subclasses as previously reported. The inhibition experiments were performed with an Agilent UV8453 spectrometer. […] The concentrations of inhibitors were varied between 0 and 200 μM. The initial reaction rates were determined in the absence and presence of inhibitors in triplicate, and the generated average values were recorded.

For a further series, the target named is T2, IMP-1 (Serratia marcescens, UniProt P52699).
T2 construct: made in house; host or cells: E. coli BL21 (DE3), plasmid pET26b-IMP-1
T2 sequence (P52699 19-246 limits assumed): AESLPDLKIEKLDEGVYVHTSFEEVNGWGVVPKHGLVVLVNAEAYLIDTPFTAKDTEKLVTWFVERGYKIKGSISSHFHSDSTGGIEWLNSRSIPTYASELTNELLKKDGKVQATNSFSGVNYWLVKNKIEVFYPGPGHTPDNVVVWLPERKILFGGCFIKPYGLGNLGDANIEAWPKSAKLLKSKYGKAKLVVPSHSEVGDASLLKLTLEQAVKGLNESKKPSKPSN
The series is described as follows: biochemical. The following applies: read-out: IC50 against IMP-1; substrate cefazolin 40 µM, 30 mM Tris pH 7.0, 25 °C, 5 min pre-incubation, inhibitor up to 200 μM. Here is the method: as §1, §2

For a further series, the target named is T3, L1 (Stenotrophomonas maltophilia, UniProt P52700).
T3 construct: made in house; host or cells: E. coli BL21 (DE3), plasmid pET-26b-L1
T3 sequence (P52700 34-290): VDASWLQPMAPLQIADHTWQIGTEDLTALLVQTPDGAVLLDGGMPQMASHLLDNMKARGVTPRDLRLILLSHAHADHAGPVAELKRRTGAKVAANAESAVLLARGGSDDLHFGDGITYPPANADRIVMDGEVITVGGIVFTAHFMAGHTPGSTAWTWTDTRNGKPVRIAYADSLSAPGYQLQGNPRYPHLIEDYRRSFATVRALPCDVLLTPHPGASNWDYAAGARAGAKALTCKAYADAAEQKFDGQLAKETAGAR
In words: biochemical. The following applies: read-out: IC50 against L1; substrate cefazolin 40 µM, 30 mM Tris pH 7.0, 25 °C, 5 min pre-incubation, inhibitor up to 200 μM. Here is the method: as §1, §2

Series [1] concerns the target T4, NDM-1 (Klebsiella pneumoniae, UniProt C7C422).
T4 construct: made in house; host or cells: E. coli BL21 (DE3), plasmid pET26b-NDM-1
The series is described as follows: biochemical. The following applies: read-out: IC50 against NDM-1; substrate cefazolin 40 µM, 30 mM Tris pH 7.0, 25 °C, 5 min pre-incubation, inhibitor up to 200 μM. Here is the method:
as §1, §2

The target in the next series is T5, ImiS (Aeromonas veronii, UniProt O31272).
T5 construct: made in house; host or cells: E. coli BL21 (DE3), plasmid pET-26b-ImiS
T5 sequence (O31272 28-255 limits assumed): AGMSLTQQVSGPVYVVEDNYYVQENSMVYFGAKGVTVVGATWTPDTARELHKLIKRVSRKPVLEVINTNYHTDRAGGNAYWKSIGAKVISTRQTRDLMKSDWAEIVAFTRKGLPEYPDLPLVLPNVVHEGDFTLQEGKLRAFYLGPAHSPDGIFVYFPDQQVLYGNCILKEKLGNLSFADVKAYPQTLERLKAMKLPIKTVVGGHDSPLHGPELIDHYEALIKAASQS
In words: biochemical. Details: species or system Aeromonas veronii bv. sobria. The following applies: read-out: IC50 against ImiS; substrate imipenem 40 µM, 30 mM Tris pH 7.0, 25 °C, 5 min pre-incubation, inhibitor up to 200 μM. Here is the method:
as §1, §2

For series [2], the system named is E. coli BL21 expressing ImiS. In words: MIC determination, broth micro-dilution, imipenem with inhibitor. The class given is cell-based. The following applies: 64 μg/mL inhibitor. Here is the method: (§3) The minimum inhibitory concentration (MIC) of antibiotics, both alone and in the presence of enzyme inhibitors, was determined using the broth micro-dilution method. Single colonies of E. coli BL21, containing plasmid, pET26b-NDM-1, pET26b-ImiS or pET26b-L1 in lysogeny broth agar plates, were transferred into 5 mL of Mueller–Hinton (MH) liquid medium. Strains grown in MH medium to OD600 = 0.45 were used as inocula, after an 84-fold dilution to 1 × 10^5 CFU/mL in MH medium. […] Compound DCs as inhibitors were dissolved in MH media, to prepare 1024, 512, 256, 128, 64 and 32 μg/mL stock solutions. The prepared solutions with different antibiotic concentrations (50 μL) were diluted to 100 μL, with different concentrations of inhibitor solution (50 μL), then 100 μL inoculum was added sequentially into the prepared solutions, to yield a quarter of the initial concentrations. The mixtures were incubated at 37 °C for 16 h. […] Each measurement was performed in duplicate.
(§4) The ability of the dithiocarbamate derivatives to inhibit MβLs, and to restore the antimicrobial activity of antibiotics, was investigated by determining the minimum inhibitory concentrations (MICs) of existing antibiotics in the presence and absence of DC1-10, as previously reported. E. coli BL21 (DE3) containing plasmids pET26b-NDM-1, pET26b-ImiS and pET26b-L1 were used to assess these inhibitors.

Series [3] has as its system E. coli BL21 expressing L1. In words: MIC determination, broth micro-dilution, cefazolin with inhibitor. In kind it is cell-based. The following applies: 64 μg/mL inhibitor. Here is the method: as §3, §4
The subject of series [4] is E. coli BL21 expressing NDM-1. The series is described as above. In kind it is cell-based. The following applies: E. coli BL21-NDM-1; 64 μg/mL inhibitor. Here is the method: as §3, §4
The subject of series [5] is mouse fibroblast cells (L-929). The series is described as follows: Cytotoxicity assay (MTT). The following applies: concentration as high as 250 μM, 48 h. The class given is cell-based. Here is the method:
The cytotoxicity assays were performed to evaluate the toxicity of DC1, DC3, DC7 and DC9 in mouse fibroblast cells (L-929). The cells were seeded into 96-well plates at a cell density of 1.0 × 10^4 cells/well, in 100 μL of culture medium and maintained for 24 h. Then, the inhibitors with working concentrations (15.6, 31.25, 62.5, 125, 250, and 500 μM) were added to the 96-well plates and incubated for another 48 h. Three wells containing only cells were suspended in a mixture solution of 98 μL complete medium, as controls for cell viability without inhibitors. Three wells containing only the complete medium were used as blank controls. Following that, the medium was removed, and 100 μL of fresh culture medium and 10 μL MTT were added to each well. After incubation for 4 h, the trays were then vigorously shaken to solubilize the formed product, and the absorbance, at a wavelength of 490 nm, was read on a microplate reader and analyzed. All experiments were conducted in triplicate, and the data are expressed as mean ± standard deviation.
The potential toxicity of dthiocarbamates DC1, DC3, DC7 and DC9 as representatives was assayed using the mouse fibroblast cells (L929) treated with different concentrations of inhibitors (15.625, 31.25, 62.5, 125, 250 and 500 μM).

Series [6] addresses T4, NDM-1. The series is described as follows: Time-dependence inhibition experiment, residual activity. The following applies: 13 nM NDM-1 incubated with inhibitor at its IC50 for 8 h. The class given is biochemical.
The test system of series [7] is Cc1nnc(SCC2=C(C(=O)O)N3C(=O)[C@@H](NC(=O)Cn4cnnn4)[C@H]3SC2)s1. The series is described as follows: purified protein, by the assay type. The following applies: other: test conditions: 30 mM Tris pH 7.0, 25 °C.
Series [8] has as its system C[C@@H](O)[C@H]1C(=O)N2C(C(=O)O)=C(SCCN=CN)C[C@H]12. In words: purified protein, by the assay type. The following applies: other: test conditions: 30 mM Tris pH 7.0, 25 °C.

Counter-ions that a name gives are not always drawn.

T4 sequence (C7C422 29-270 limits assumed): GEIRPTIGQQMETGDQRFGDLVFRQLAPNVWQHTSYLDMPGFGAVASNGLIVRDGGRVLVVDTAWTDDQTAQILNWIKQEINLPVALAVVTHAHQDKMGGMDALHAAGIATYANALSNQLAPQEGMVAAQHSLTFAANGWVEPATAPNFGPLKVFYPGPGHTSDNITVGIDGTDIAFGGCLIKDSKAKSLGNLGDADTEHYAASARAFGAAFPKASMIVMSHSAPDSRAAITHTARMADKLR

As usually defined, the melting point is the temperature of the solid-liquid transition. `O=C(CCc1ccccc1)NNC(=S)[S][K]` (as salt: potassium) [DC9, Potassium 2-(3-phenylpropanoyl)hydrazine-1-carbodithioate] returned a melting point of 170 to 171 °C.
By IC50 is commonly meant the concentration that inhibits the measured activity by half. In turn, `O=C(Cc1ccccc1)NNC(=S)[S][K]` [DC2] registered a melting point of 150 to 151 °C. The IC50 on VIM-2 is above 200 µM. Moreover, at IMP-1, the IC50 was 166 ± 2.7 µM. Besides, the IC50 at L1 worked out at 86.8 ± 1.6 µM. For the same compound, at NDM-1 [1], the IC50 worked out at 5.64 ± 0.1 µM. The IC50 at ImiS worked out at 2.5 ± 0.1 µM.
`O=C(NNC(=S)[S][K])c1ccc(O)cc1` [DC3] had a melting point of 298 to 299 °C. Also, the IC50 on VIM-2 worked out at 82.8 ± 1.1 µM. Besides, the IC50 at IMP-1 was above 200 µM. The IC50 at L1 was above 200 µM. Also, the IC50 on NDM-1 [1] worked out at 67.1 ± 0.9 µM. The IC50 at ImiS was above 200 µM. Moreover, the “fold reduction in MIC of imipenem” value in series [2] was “no inhibitory effects”. The “fold reduction in MIC of cefazolin” value in series [3] was “no inhibitory effects”. In addition, in series [4], the “fold reduction in MIC of cefazolin” value is “no inhibitory effects”. In addition, the “survival rate of L929 mouse cells” value in series [5] is “higher than 80%”.
In the case of `Nc1ccccc1C(=O)NNC(=S)[S][K]` [DC4], the melting point is 233 to 234 °C. The IC50 on VIM-2 was 139 ± 2.05 µM. For the same compound, the concentration for half-maximal inhibition (IC50) on IMP-1 is 103 ± 1.45 µM. In addition, on L1, the IC50 was 177 ± 2.8 µM. Besides, the IC50 at NDM-1 [1] worked out at 11.4 ± 0.4 µM. For the same compound, at ImiS, the IC50 was found to be 1.08 ± 0.05 µM.
Compound `O=C(NNC(=S)[S][K])c1ccc(Cl)cc1` [DC5] returned a melting point above 300 °C. Further, the IC50 at VIM-2 was above 200 µM. In addition, at IMP-1, the IC50 was above 200 µM. The 50% inhibitory concentration (IC50) at L1 is above 200 µM. Further, the IC50 at NDM-1 [1] was 91.3 ± 1.7 µM. At ImiS, the IC50 came to 129 ± 2.1 µM.
For `O=C(NNC(=S)[S][K])c1cccc(Br)c1` [DC6], the melting point is above 300 °C. In addition, at VIM-2, the IC50 is above 200 µM. Besides, the concentration for half-maximal inhibition (IC50) on IMP-1 is above 200 µM. For the same compound, on L1, the IC50 is 154 ± 3.2 µM. Moreover, at NDM-1 [1], the IC50 was determined as 15.2 ± 0.9 µM. Besides, the IC50 on ImiS amounted to 2.56 ± 0.05 µM.
Regarding `CC(C)(C)c1ccc(C(=O)NNC(=S)[S][K])cc1` [DC7], the melting point is above 300 °C. In addition, the IC50 at VIM-2 was found to be 63.5 ± 1.3 µM. Moreover, on IMP-1, the IC50 was 96.4 ± 1.2 µM. The 50% inhibitory concentration (IC50) on L1 was determined as 191 ± 4 µM. The IC50 at NDM-1 [1] stood at 0.52 ± 0.01 µM. For the same compound, the IC50 on ImiS was above 200 µM. In series [5], the “survival rate of L929 mouse cells” value was “higher than 80%”.
Regarding `O=C(NNC(=S)[S][K])c1ccccc1` [DC8], the IC50 at L1 came out at 25.81 ± 0.12 µM. Moreover, the “time dependence of NDM-1 inhibition (residual activity)” value on NDM-1 [6] was “no time-dependent inhibition”.
`O=C(CCc1ccccc1)NNC(=S)[S][K]` [DC9, Potassium 2-(3-phenylpropanoyl)hydrazine-1-carbodithioate]: the IC50 was 115 ± 3.1 µM at VIM-2; 86.2 ± 0.9 µM at IMP-1; above 200 µM at L1; 62.7 ± 1.05 µM on NDM-1 [1]; 156 ± 2.2 µM on ImiS. For the same compound, the “survival rate of L929 mouse cells” value in series [5] is given as “higher than 80%”.
In the case of `O=C(NNC(=S)[S][K])C(O)c1ccccc1` (centres unmarked) [DC10, Potassium 2-(2-hydroxy-2-phenylacetyl)hydrazine-1-carbodithioate], on NDM-1 [6], the “time dependence of NDM-1 inhibition (residual activity)” value is “no time-dependent inhibition”.
What is called Km is the concentration of substrate that gives half-maximal velocity. With IMP-1 (Serratia marcescens), the Michaelis-Menten constant (Km) in series [7] was 73 µM.
In the case of ImiS (Aeromonas veronii), in series [8], the Km was 52 µM.
With L1 (Stenotrophomonas maltophilia), in [7], the Km worked out at 60 µM.
For the compound NDM-1 (Klebsiella pneumoniae), the Michaelis constant (Km) in [7] turned out to be 15 µM.
For VIM-2 (Escherichia coli), the Km in [7] turned out to be 97 µM.
